# Data reported in patent US7883846B2, “Heterologous stimulus-gated ion channels and methods of using same” (priority 2002, dated 2011).
# pEC50: −log10 of the molar value.
# How the values were obtained:
# [1] = target: T1, rat TRPM8 (Rattus norvegicus, UniProt Q8R455); assay: Pharmacological stimulation of transfected hippocampal neurons, whole-cell patch clamp (TRPM8); format: cell-based
# T1 construct: expressed in transfected cells; host or cells: dissociated hippocampal neurons from E19 rats, calcium phosphate transfection of pCI-fluor plasmid
# T1 sequence (Q8R455 whole entry): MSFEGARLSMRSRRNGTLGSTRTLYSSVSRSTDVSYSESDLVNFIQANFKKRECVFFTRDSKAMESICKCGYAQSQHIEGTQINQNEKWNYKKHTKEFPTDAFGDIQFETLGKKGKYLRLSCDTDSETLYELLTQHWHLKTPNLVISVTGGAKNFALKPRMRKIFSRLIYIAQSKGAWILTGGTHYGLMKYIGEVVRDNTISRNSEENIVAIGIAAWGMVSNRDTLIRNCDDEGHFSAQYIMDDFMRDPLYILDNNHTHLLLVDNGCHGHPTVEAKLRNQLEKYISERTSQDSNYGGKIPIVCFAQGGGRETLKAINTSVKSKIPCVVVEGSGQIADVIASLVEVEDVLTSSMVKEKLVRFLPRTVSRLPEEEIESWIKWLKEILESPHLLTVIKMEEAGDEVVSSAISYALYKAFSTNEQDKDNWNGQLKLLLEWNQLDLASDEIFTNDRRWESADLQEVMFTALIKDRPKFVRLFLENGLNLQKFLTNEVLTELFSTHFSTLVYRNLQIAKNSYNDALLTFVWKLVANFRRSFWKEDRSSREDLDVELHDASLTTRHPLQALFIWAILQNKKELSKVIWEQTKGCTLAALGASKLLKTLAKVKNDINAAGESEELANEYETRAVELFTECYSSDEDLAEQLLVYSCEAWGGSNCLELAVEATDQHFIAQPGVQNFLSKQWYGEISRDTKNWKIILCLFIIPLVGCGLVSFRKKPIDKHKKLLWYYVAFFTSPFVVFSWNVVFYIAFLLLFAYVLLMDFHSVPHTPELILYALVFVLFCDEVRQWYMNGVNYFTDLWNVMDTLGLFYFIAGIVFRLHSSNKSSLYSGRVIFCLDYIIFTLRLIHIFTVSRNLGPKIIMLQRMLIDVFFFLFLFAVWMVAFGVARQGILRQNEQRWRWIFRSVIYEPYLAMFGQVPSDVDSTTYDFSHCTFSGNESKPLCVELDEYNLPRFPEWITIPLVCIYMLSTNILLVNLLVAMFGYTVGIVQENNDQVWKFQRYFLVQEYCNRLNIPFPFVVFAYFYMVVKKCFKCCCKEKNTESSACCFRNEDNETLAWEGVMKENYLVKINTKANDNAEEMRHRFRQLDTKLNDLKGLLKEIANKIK
# Method: (§1) Three plasmid species were prepared, each species containing a stimulus-gated ion channel (rat TRPV1, rat TRPM8 or rat P2X2) under the control of the CMV promoter in pCI-fluor, a derivative of the mammalian expression vector pCI-neo (Promega). To create pCI-fluor, the aminoglycoside phosphotransferase coding sequence of pCI-neo was replaced with that of EGFP bearing a 20-amino acid N-terminal GAP43 tag (Zemelman, Lee et al. 2002). Rat TRPV1 and rat TRPM8 were expressed as monomers; rat P2X2 subunits were linked into covalent trimers via tandem repeats of the tripeptide -Ser-Gly-Gly-. […]
# (§2) Transfected neurons in cultures and infected neurons in brain slices were identified by GAP43-EGFP fluorescence and recorded in the whole-cell patch-clamp configuration. […] Membrane potentials and transmembrane currents were recorded with an Axoclamp-2B amplifier (Axon Instruments) in bridge and continuous single-electrode voltage-clamp mode, respectively, and digitized at 5 kHz without filtering (Digidata 1200, Axon Instruments). […]
# (§3) To determine dose-response relationships, the peak amplitudes as well as the integrated charges carried by depolarizing currents at different agonist concentrations were measured under whole-cell voltage clamp, at a constant holding potential of −65 mV.
# [2] = test system: hippocampal neurons lacking the cognate exogenous receptor; assay: Stimulation of hippocampal neurons lacking the cognate exogenous receptor / untransfected neurons; format: cell-based, rat; settings: 50 nM capsaicin, 100 μM menthol, 50 μM ATP; off-diagonal receptor-agonist combinations
# [3] = target: T2, rat TRPV1 (Rattus norvegicus, UniProt O35433); assay: Pharmacological stimulation of transfected hippocampal neurons, whole-cell patch clamp (TRPV1); format: cell-based
# T2 construct: expressed in transfected cells; host or cells: dissociated hippocampal neurons from E19 rats, calcium phosphate transfection of pCI-fluor plasmid
# T2 sequence (O35433 whole entry): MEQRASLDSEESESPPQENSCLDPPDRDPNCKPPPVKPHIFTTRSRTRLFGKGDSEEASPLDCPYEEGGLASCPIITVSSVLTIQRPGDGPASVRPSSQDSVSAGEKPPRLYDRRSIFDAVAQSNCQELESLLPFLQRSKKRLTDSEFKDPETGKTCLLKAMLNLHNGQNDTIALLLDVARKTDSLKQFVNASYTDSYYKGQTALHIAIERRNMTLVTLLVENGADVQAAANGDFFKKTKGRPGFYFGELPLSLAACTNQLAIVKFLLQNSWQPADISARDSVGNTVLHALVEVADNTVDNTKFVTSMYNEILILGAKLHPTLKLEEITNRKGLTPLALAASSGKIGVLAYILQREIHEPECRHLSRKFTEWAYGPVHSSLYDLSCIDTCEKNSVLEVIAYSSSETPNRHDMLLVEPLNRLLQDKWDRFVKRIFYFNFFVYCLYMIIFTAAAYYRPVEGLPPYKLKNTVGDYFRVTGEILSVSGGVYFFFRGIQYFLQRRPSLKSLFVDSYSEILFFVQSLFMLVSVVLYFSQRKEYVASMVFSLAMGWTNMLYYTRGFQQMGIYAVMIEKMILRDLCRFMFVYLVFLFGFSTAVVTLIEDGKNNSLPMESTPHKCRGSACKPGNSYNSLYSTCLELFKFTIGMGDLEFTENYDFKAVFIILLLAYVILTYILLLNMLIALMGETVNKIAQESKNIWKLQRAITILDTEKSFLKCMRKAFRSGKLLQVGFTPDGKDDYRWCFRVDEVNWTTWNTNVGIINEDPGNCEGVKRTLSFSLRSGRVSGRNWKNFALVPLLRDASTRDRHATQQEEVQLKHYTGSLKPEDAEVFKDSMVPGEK
# Method: as §1, §2, §3
# [4] = target: T3, TRPV1 expressed ectopically in nociceptor neurons of C. elegans (Rattus norvegicus, UniProt O35433); settings: wild-type animals lack the behavior; cited from earlier work
# T3 construct: host or cells: transgenic C. elegans nociceptor neurons
# T3 sequence (O35433 whole entry): as above
# [5] = test system: rat P2X2; assay: Pharmacological stimulation of transfected hippocampal neurons, whole-cell patch clamp (P2X2); format: cell-based; settings: 50 μM ATP, 1-ml bolus, whole-cell current clamp, 50 μM AP-5 plus 10 μM CNQX
# Method: Three plasmid species were prepared, each species containing a stimulus-gated ion channel (rat TRPV1, rat TRPM8 or rat P2X2) under the control of the CMV promoter in pCI-fluor, a derivative of the mammalian expression vector pCI-neo (Promega). To create pCI-fluor, the aminoglycoside phosphotransferase coding sequence of pCI-neo was replaced with that of EGFP bearing a 20-amino acid N-terminal GAP43 tag (Zemelman, Lee et al. 2002). Rat TRPV1 and rat TRPM8 were expressed as monomers; rat P2X2 subunits were linked into covalent trimers via tandem repeats of the tripeptide -Ser-Gly-Gly-.
# Hippocampal neurons, obtained from E19 rats and grown in dissociated cultures, were exposed to 4.2 μg cm^−2 of calcium phosphate-precipitated plasmid DNA as described in Example 1 (pH 7.08) for 20 min to allow plasmid uptake. Transfections were performed on day 8 after plating; immunocytochemical analyses and electrophysiological recordings on days 6-10 after transfection. […]
# as §2
# [6] = test system: P2X2; assay: Photostimulation of P2X2-expressing neurons with caged agonist; format: cell-based, rat
# Sequence of P2X2 (P49653 whole entry): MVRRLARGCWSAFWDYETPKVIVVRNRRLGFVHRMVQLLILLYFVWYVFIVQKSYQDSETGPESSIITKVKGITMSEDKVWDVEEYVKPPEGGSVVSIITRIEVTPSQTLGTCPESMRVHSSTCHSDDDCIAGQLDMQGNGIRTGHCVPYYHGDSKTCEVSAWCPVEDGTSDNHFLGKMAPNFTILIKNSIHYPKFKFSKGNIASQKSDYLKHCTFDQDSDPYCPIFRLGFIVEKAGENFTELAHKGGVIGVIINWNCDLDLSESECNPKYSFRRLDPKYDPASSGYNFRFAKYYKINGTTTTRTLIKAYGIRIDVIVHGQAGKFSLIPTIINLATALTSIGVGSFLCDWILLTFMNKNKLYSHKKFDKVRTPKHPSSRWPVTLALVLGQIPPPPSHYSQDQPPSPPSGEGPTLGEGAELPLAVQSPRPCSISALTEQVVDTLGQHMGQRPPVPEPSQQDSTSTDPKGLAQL
# [7] = target: T4, TRPV1 (Rattus norvegicus, UniProt O35433); format: cell-based
# T4 construct: expressed in transfected cells; host or cells: dissociated hippocampal neurons from E19 rats, calcium phosphate transfection of pCI-fluor plasmid
# T4 sequence (O35433 whole entry): as the sequence (O35433 whole entry) above
# [8] = 1 mM DMNPE-ATP, 1-s light pulse, mean±s.d., n=16
compound,measurement,setting,value
"CC(C)[C@@H]1CC[C@@H](C)C[C@H]1O [menthol, [1R,2S,5R]-5-methyl-2-[1-methylethyl]cyclo-hexanol]",response of membrane potential to a bolus of agonist,"[1]; 100 μM menthol, 1-ml bolus, whole-cell current clamp, 50 μM AP-5 plus 10 μM CNQX","depolarization, spiking, and repolarization"
same,pEC50,"[1]; whole-cell voltage clamp, holding potential −65 mV, results not shown, read-out: half-maximal response",3.82
same,stimulation of hippocampal neurons lacking the cognate exogenous receptor,[2],"None of the three agonists, including ATP, was able to stimulate"
COc1cc(CNC(=O)CCCC/C=C/C(C)C)ccc1O [capsaicin],response of membrane potential to a bolus of agonist,"[3]; 50 nM capsaicin, 1-ml bolus, whole-cell current clamp, 50 μM AP-5 plus 10 μM CNQX","depolarization, spiking, and repolarization"
same,peak spike rate (firing frequency),"[3]; current clamp, sliding 200-ms windows, increasing agonist concentration, 382 agonist applications to 60 neurons",40 Hz
same,stimulation of hippocampal neurons lacking the cognate exogenous receptor,[2],"None of the three agonists, including ATP, was able to stimulate"
same,behavior elicited in C. elegans,[4],avoidance behaviors
Nc1ncnc2c1ncn2[C@@H]1O[C@H](COP(=O)(O)OP(=O)(O)OP(=O)(O)O)[C@@H](O)[C@H]1O [ATP],response of membrane potential to a bolus of agonist,[5],"depolarization, spiking, and repolarization"
same,stimulation of hippocampal neurons lacking the cognate exogenous receptor,[2],"None of the three agonists, including ATP, was able to stimulate"
"P3-(1-(4,5-dimethoxy-2-nitrophenyl)ethyl) (DMNPE) ester of ATP [DMNPE-ATP]",duration of window of activity,[6]; [8],"2,456±1,273 ms"
same,lag period between optical stimulus and window of activity,[6]; [8],"1,136±96 ms"
same,membrane potentials and transmembrane conductances in presence of caged ligand without light,"[6]; 1 mM DMNPE-ATP, whole-cell current- or voltage-clamp",unaffected
same,biological activity due to chemical or enzymatic decomposition of the caged compound,"[6]; recordings lasting for >30 min, 1 mM",No trace of biological activity
COc1cc(COC(=O)Oc2ccc(CNC(=O)CCCC/C=C/C(C)C)cc2OC)c([N+](=O)[O-])cc1OC [DMNB-capsaicin],action potential frequency after light pulse,[7],15-40 Hz
same,biological activity due to chemical or enzymatic decomposition of the caged compound,[7],No trace of biological activity
same,duration of window of activity,[7],"2,651±383 ms"
same,lag of onset of activity behind optical stimulus,[7],"5,035±2,061 ms"
same,membrane potentials and transmembrane conductances in presence of caged ligand without light,[7],unaffected
same,response on repeated photostimulation of the same neuron,[7],did not attenuate
